Source: patent publication US20070026051A1, “Use of tripolidine in providing refreshedness on waking” (priority 2003, published 2007)

How the values were obtained:
[1] = test system: volunteers; conditions: single doses 10 mg or 20 mg sustained release at bedtime; cited from earlier work
[2] = test system: patients with temporary sleep disturbance; experiment: Clinical trial: Loughborough sleep log (subjective); assay type: in vivo, human; design: dose or concentration left out as unconfirmed; conditions: mean of the 3 nights, p<0.05
Description: (§1) The study herein utilised the following determination methods:— • (a) Karolinska scale as defined in: Int. J. Neuroscience 52 29-37 (1990); and—validation: Sleep 17 (3) 236-41 (1994) • (b) Loughborough Sleep log as defined in: Sleep 17 (2) 146-159 (1994); and • Sleep 18 (2) 127-134 (1995) • (c) Actimetry—AW4 actimeters (Cambridge Neurotechnology) were worn continuously throughout the study. A button was pressed at night when the subject desired to go to sleep and again in the morning upon waking. The results of the actimeter study were analysed in the manner defined by Horne et al (Sleep, 17(2); 146-159). SDI % was calculated as follows:— SDI=Number of 30 second epochs with movement×100 • Number of 30 second epochs from total time spent in bed This is the measure of: • 1. The length of time it took to fall asleep • 2. Any awakenings throughout the sleep period • Expressed as a % of total time spent in bed. Study Objectives • To evaluate the effects of two doses of triprolidine compared with placebo. Study Design […]
Candidates were required to complete a questionnaire 15 minutes after awaking on the feeling of refreshedness assessed on a 5-point scale, the Loughborough sleep log.
Generally the treatment groups were well balanced in terms of the demographic data. Unless otherwise mentioned all group data was analysed using ANOVA. […]

[3] = test system: patients with temporary sleep disturbance; experiment: Clinical trial: wrist actimetry (SDI, time to sleep onset); assay type: in vivo, human; design: SDI compared to placebo: dose or concentration left out as unconfirmed
Description: The efficacy of triprolidine in enabling a patient to feel refreshed or alert upon waking after taking triprolidine prior to sleeptime was investigated using patients with a history of sleep disorders and utilising triprolidine prepared in accordance with example 1.
as §1
Male and Female candidates aged 18 years and above were recruited to one of five research centres by means of local advertising. […]
In the trial, patients were tested during a seven day period and the results have been analysed for a mean of three days in the middle of this period. […]
(§2) Generally the treatment groups were well balanced in terms of the demographic data. Unless otherwise mentioned all group data was analysed using ANOVA. In two cases, namely, how the patient felt 15 minutes after awakening in the Loughborough Sleep Log and the Karolinska Sleepiness Scale at 20 minutes, the two variables were analysed using ANCOVA by including the weekend and the mean of Friday/Saturday/Sunday night as a covariate. […]

[4] = test system: patients with temporary sleep disturbance; experiment: Clinical trial: Karolinska 9-point sleepiness scale; assay type: in vivo, human
Description: The study herein utilised the following determination methods:— • (a) Karolinska scale as defined in: Int. J. Neuroscience 52 29-37 (1990); and—validation: Sleep 17 (3) 236-41 (1994) • (b) Loughborough Sleep log as defined in: Sleep 17 (2) 146-159 (1994); and • Sleep 18 (2) 127-134 (1995) • (c) Actimetry—AW4 actimeters (Cambridge Neurotechnology) were worn continuously throughout the study. A button was pressed at night when the subject desired to go to sleep and again in the morning upon waking. The results of the actimeter study were analysed in the manner defined by Horne et al (Sleep, 17(2); 146-159). SDI % was calculated as follows:— SDI=Number of 30 second epochs with movement×100 • Number of 30 second epochs from total time spent in bed This is the measure of: • 1. The length of time it took to fall asleep • 2. Any awakenings throughout the sleep period • Expressed as a % of total time spent in bed. Study Objectives • To evaluate the effects of two doses of triprolidine compared with placebo. Study Design
A multiple-dose, placebo-controlled, parallel-group, double-blind, randomised study investigating the effects of 2.5 mg and 5 mg triprolidine in patients with temporary sleep disturbance.
Male and Female candidates aged 18 years and above were recruited to one of five research centres by means of local advertising. Candidates were screened by means of a telephone questionnaire and selected candidates invited for interview at the research centre. Key inclusion criteria used to select candidates for the study were: • A record of poor sleep at least 2 nights per week • A record of poor sleep for at least 1 week but not more than 3 months • Sleep disturbance not caused by underlying disease • No excess use of alcohol or drugs • Sleep disturbance affected daytime functioning
The candidates came to the research centre on Thursday or Friday and were fitted with a wrist actimeter (AW4 from Cambridge Technology) to establish a baseline measure for SDI and were provided with diary cards to record subjective assessments for the Loughborough Sleep Log and the Karolinska Sleepiness Scale. They returned to the investigational site on the Monday and were issued with the study compositions (2.5 mg triprolidine, 5 mg triprolidine or placebo). […]
as §2

[5] = both treatments (2.5 mg and 5 mg), every treatment night
[6] = 2.5 mg triprolidine, mean of the 3 nights

daytime sleepiness ([4]; either dose of triprolidine): lack of daytime sleepiness
SMILES: Cc1ccc(/C(=C\CN2CCCC2)c2ccccn2)cc1 [triprolidine]
sleep onset latency (time required to fall asleep) compared with placebo [1]: did not significantly alter
total sleep time compared with placebo [1]: no effect
wakefulness during sleep compared with placebo [1]: no effect
feeling of refreshedness 15 minutes after waking vs placebo (Loughborough sleep log) [2]: more refreshed
SDI as compared with placebo [3, 5]: reduced
sleep latency onset as compared with placebo [3, 5]: reduced
SDI compared to placebo ([3]; triprolidine, mean of the 3 nights, p<0.01): significantly reduced
percentage of people feeling alert, very alert or extremely alert on waking vs placebo (Karolinska log) [4, 6]: greater percentage
percentage of people feeling sleepy, some effort, or very sleepy, great effort to keep awake on waking vs placebo (Karolinska log) [4, 6]: lower percentage
residual hangover effects/morning grogginess [4, 6]: no evidence of residual hangover effects/morning grogginess
